From patent publication US9233979B2, “Compounds that are ERK inhibitors” (Merck Sharp & Dohme Corp., priority 2012, dated 2016)

These molecules were tested against phosphorylated active hERK2 enzyme (Homo sapiens (Human), UniProt P28482) (assay: Active Human ERK2 (hERK2) Activity Assay (IMAP-FP)). Details: Table 5, 0.5 nM hERK2, 30 μM ATP, 10 point titration, read-out: AERK2 IC50.
Format: biochemical
Procedure: Assays Active Human ERK2 (hERK2) Activity Assay:
Activated ERK2 activity was determined in an IMAP-FP assay (Molecular Devices). […] The final reaction in each well of 25 μL consists of 0.5 nM hERK2, 900 nM unlabeled peptide, 80 nM labeled-peptide, and 30 μM ATP. Phosphorylation reactions were allowed to proceed for 60 minutes and were immediately quenched by the addition of 60 μL IMAP detection beads (1:1000 dilutions) in IMAP binding buffer (Molecular Devices) with 24 mM NaCl. Plates were read on EnVision reader after 60 minutes binding equilibration using Fluorescence Polarization protocol (Perkin Elmer).

Sequence of phosphorylated active hERK2 enzyme (P28482 whole entry): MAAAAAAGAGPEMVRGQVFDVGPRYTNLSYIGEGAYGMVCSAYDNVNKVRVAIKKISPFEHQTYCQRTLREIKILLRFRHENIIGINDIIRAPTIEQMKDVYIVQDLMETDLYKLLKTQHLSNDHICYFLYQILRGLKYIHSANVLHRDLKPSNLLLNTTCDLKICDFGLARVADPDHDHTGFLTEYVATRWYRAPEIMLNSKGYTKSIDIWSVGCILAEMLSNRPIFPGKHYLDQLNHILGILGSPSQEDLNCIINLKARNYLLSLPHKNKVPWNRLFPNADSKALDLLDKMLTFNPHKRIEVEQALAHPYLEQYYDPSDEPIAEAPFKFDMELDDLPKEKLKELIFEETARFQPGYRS

| SMILES | IC50 [nM] |
| --- | --- |
| CN1C[C@H](NC(=O)Nc2cc3[nH]nc(N4CCOCC4)c3cn2)[C@@H](c2ccccc2)C1 [Example 41, 1-[(3R,4S)-1-Methyl-4-phenylpyrrolidin-3-yl]-3-(3-morpholin-4-yl-1H-pyrazolo[4,3-c]pyridin-6-yl)urea] | 20.2 |
| CN1C[C@@H](NC(=O)Nc2cc3[nH]nc(N4CCOCC4)c3cn2)[C@H](c2ccccc2)C1 [Example 42, 1-[(3S,4R)-1-methyl-4-phenylpyrrolidin-3-yl]-3-(3-morpholin-4-yl-1H-pyrazolo[4,3-c]pyridin-6-yl)urea] | 0.2 |
| C[C@@H](NC(=O)Nc1cc2[nH]nc(N)c2cn1)c1ccc(F)cc1 [Example 44, 1-(3-amino-1H-pyrazolo[4,3-c]pyridin-6-yl)-3-[(1R)-1-(4-fluorophenyl)ethyl]urea] | 2.81 |
| CC(=O)Nc1n[nH]c2cc(NC(=O)N[C@H](C)c3ccccc3)ncc12 [Example 47, (R)—N-(6-(3-(1-Phenylethyl)ureido)-1H-pyrazolo[4,3-c]pyridin-3-yl)acetamide] | 0.66 |
| CCS(=O)(=O)Nc1n[nH]c2cc(NC(=O)N[C@H](C)c3ccccc3)ncc12 [Example 50, (R)—N-(6-(3-(1-Phenylethyl)ureido)-1H-pyrazolo[4,3-c]pyridin-3-yl)ethanesulfonamide] | 321 |
| C[C@@H](NC(=O)Nc1cc2[nH]nc(NS(C)(=O)=O)c2cn1)c1ccccc1 [Example 51, N-[6-({[(1R)-1-phenylethyl]carbamoyl}amino)-1H-pyrazolo[4,3-c]pyridin-3-yl]methanesulfonamide] | 652 |
| C[C@@H](NC(=O)Nc1cc2[nH]nc(NS(=O)(=O)C3CC3)c2cn1)c1ccccc1 [Example 52, N-[6-({[(1R)-1-phenylethyl]carbamoyl}amino)-1H-pyrazolo[4,3-c]pyridin-3-yl]cyclopropanesulfonamide] | 914 |
| C[C@@H](NC(=O)Nc1cc2[nH]nc(NS(=O)(=O)C3CCC3)c2cn1)c1ccccc1 [Example 53, N-[6-({[(1R)-1-phenylethyl]carbamoyl}amino)-1H-pyrazolo[4,3-c]pyridin-3-yl]cyclobutanesulfonamide] | 424 |
| COCCS(=O)(=O)Nc1n[nH]c2cc(NC(=O)N[C@H](C)c3ccccc3)ncc12 [Example 54, 2-methoxy-N-[6-({[(1R)-1-phenylethyl]carbamoyl}amino)-1H-pyrazolo[4,3-c]pyridin-3-yl]ethanesulfonamide] | 810 |
| C[C@@H](NC(=O)Nc1cc2[nH]nc(NS(=O)(=O)CC3CC3)c2cn1)c1ccccc1 [Example 55, 1-cyclopropyl-N-[6-({[(1R)-1-phenylethyl]carbamoyl}amino)-1H-pyrazolo[4,3-c]pyridin-3-yl]methanesulfonamide] | 88.8 |
| C[C@@H](NC(=O)Nc1cc2[nH]nc(NS(=O)(=O)C3CNC3)c2cn1)c1ccccc1 [Example 56] | 191 |
| CCNc1n[nH]c2c(F)c(NC(=O)N[C@H](C)c3ccccc3)ncc12 [Example 57, (R)-1-(3-(Ethylamino)-7-fluoro-1H-pyrazolo[4,3-c]pyridin-6-yl)-3-(1-phenylethyl)urea] | 3.05 |
| CC(=O)Nc1n[nH]c2c(F)c(NC(=O)N[C@H](C)c3ccccc3)ncc12 [Example 58, (R)—N-(7-Fluoro-6-(3-(1-phenylethyl)ureido)-1H-pyrazolo[4,3-c]pyridin-3-yl)acetamide] | 6.43 |
| C[C@@H](NC(=O)Nc1ncc2c(N)n[nH]c2c1F)c1ccccc1 [Example 59, (R)-1-(3-Amino-7-fluoro-1H-pyrazolo[4,3-c]pyridin-6-yl)-3-(1-phenylethyl)urea] | 6.47 |
| CCNc1n[nH]c2c(C)c(NC(=O)N[C@H](C)c3ccccc3)ncc12 [Example 60, (R)-1-(3-(Ethylamino)-7-methyl-1H-pyrazolo[4,3-c]pyridin-6-yl)-3-(1-phenylethyl)urea] | 38.8 |

Same assay, conditions: Table 6, 0.5 nM hERK2, 30 μM ATP, 10 point titration, read-out: AERK2 IC50

| SMILES | IC50 [nM] |
| --- | --- |
| Cc1ccc(Nc2n[nH]c3cc(NC(=O)N[C@H](C)c4ccccc4)ncc23)cn1 [Example 61, 1-{3-[(6-methylpyridin-3-yl)amino]-1H-pyrazolo[4,3-c]pyridin-6-yl}-3-[(1R)-1-phenylethyl]urea] | 8.8 |
| Cc1cc(Nc2n[nH]c3cc(NC(=O)N[C@H](C)c4ccccc4)ncc23)ccn1 [Example 62, 1-{3-[(2-methylpyridin-4-yl)amino]-1H-pyrazolo[4,3-c]pyridin-6-yl}-3-[(1R)-1-phenylethyl]urea] | 14.7 |
| C[C@@H](NC(=O)Nc1cc2[nH]nc(N3CCc4scnc4C3)c2cn1)c1ccc(F)cc1 [Example 63, 1-[3-(6,7-dihydro[1,3]thiazolo-[4,5-c]pyridin-5(4H)-yl)-1H-pyrazolo[4,3-c]pyridin-6-yl]-3-[(1R)-1-(4-fluorophenyl)ethyl]-urea] | 5.8 |
| C[C@@H](O)[C@@H](NC(=O)Nc1cc2[nH]nc(N3CCc4scnc4C3)c2cn1)c1ccccc1 [Example 64, 1-[3-(6,7-dihydro[1,3]thiazolo-[4,5-c]pyridin-5(4H)-yl)-1H-pyrazolo[4,3-c]pyridin-6-yl]-3-[(1S,2R)-2-hydroxy-1-phenylpropyl]urea] | 5.6 |
| COC(=O)N[C@H](C(=O)Nc1n[nH]c2cc(NC(=O)N[C@H](C)c3ccc(F)cc3)ncc12)C1CCOCC1 [Example 65, methyl [(1S)-2-{[6-({[(1R)-1-(4-fluoro-phenyl)ethyl]carbamoyl}-amino)-1H-pyrazolo[4,3-c]-pyridin-3-yl]amino}-2-oxo-1-(tetrahydro-2H-pyran-4-yl)-ethyl]carbamate] | 365 |
| COC(=O)N[C@H](C(=O)Nc1n[nH]c2cc(NC(=O)N[C@H](C)c3ccc(F)cc3)ncc12)C(C)C [Example 66, methyl [(1S)-1-{[6-({[(1R)-1-(4-fluoro-phenyl)ethyl]-carbamoyl}-amino)-1H-pyrazolo[4,3-c]-pyridin-3-yl]-carbamoyl}-2-methylpropyl]-carbamate] | 31.6 |
| CCNc1n[nH]c2cc(NC(=O)N[C@H](CO)c3ccccc3)ncc12 [Example 67, 1-[3-(ethylamino)-1H-pyrazolo[4,3-c]pyridin-6-yl]-3-[(1S)-2-hydroxy-1-phenylethyl]urea] | 0.7 |
| C[C@@H](NC(=O)Nc1cc2[nH]nc(N)c2c(CO)n1)c1ccccc1 [Example 68, (R)-1-(3-amino-4-(hydroxymethyl)-1H-pyrazolo[4,3-c]pyridin-6-yl)-3-(1-phenylethyl)urea] | 0.5 |
| COCc1nc(NC(=O)N[C@H](C)c2ccccc2)cc2[nH]nc(N)c12 [Example 69, (R)-1-(3-amino-4-(methoxymethyl)-1H-pyrazolo[4,3-c]pyridin-6-yl)-3-(1-phenylethyl)urea] | 1.5 |
| CCNc1n[nH]c2cc(NC(=O)N[C@H](C)c3ccccc3)nc(CO)c12 [Example 70, 1-[3-(ethylamino)-4-(hydroxymethyl)-1H-pyrazolo[4,3-c]-pyridin-6-yl]-3-[(1R)-1-phenylethyl]urea] | 0.6 |
| CCNc1n[nH]c2cc(NC(=O)N[C@H](C)c3ccccc3)nc(COC)c12 [Example 71, (R)-1-(3-(ethylamino)-4-(methoxymethyl)-1H-pyrazolo[4,3-c]pyridin-6-yl)-3-(1-phenylethyl)urea] | 4.4 |
| COCc1nc(NC(=O)N[C@H](C)c2ccccc2)cc2[nH]nc(NC(C)=O)c12 [Example 72, (R)—N-(4-(methoxymethyl)-6-(3-(1-phenylethyl)ureido)-1H-pyrazolo[4,3-c]pyridin-3-yl)acetamide] | 106 |
| C[C@@H](NC(=O)Nc1cc2[nH]nc(NC3=CC(=O)CC3)c2cn1)c1ccccc1 [Example 73, (R)-1-(3-((3-oxocyclopent-1-en-1-yl)amino)-1H-pyrazolo[4,3-c]pyridin-6-yl)-3-(1-phenylethyl)urea] | 39.2 |
| C[C@@H](NC(=O)Nc1cc2[nH]nc(N[C@@H]3CCOC3)c2cn1)c1ccccc1 [Example 74, 1-[(1R)-1-phenylethyl]-3-{3-[(3R)-tetrahydro-furan-3-ylamino]-1H-pyrazolo[4,3-c]-pyridin-6-yl}urea] | 1.7 |
| COC[C@@H](NC(=O)Nc1cc2[nH]nc(N[C@@H]3CCOC3)c2cn1)c1ccccc1 [Example 75, 1-[(1S)-2-methoxy-1-phenylethyl]-3-{3-[(3R)-tetrahydro-furan-3-ylamino]-1H-pyrazolo[4,3-c]-pyridin-6-yl}urea] | 0.8 |
| COC[C@@H](NC(=O)Nc1cc2[nH]nc(N[C@H]3CCOC3)c2cn1)c1ccccc1 [Example 76, 1-[(1S)-2-methoxy-1-phenylethyl]-3-{3-[(3S)-tetrahydro-furan-3-ylamino]-1H-pyrazolo[4,3-c]-pyridin-6-yl}urea] | 1.3 |
| C[C@@H](NC(=O)Nc1cc2[nH]nc(N[C@H]3CCOC3)c2cn1)c1ccccc1 [Example 77, 1-[(1R)-1-phenylethyl]-3-{3-[(3S)-tetrahydro-furan-3-ylamino]-1H-pyrazolo[4,3-c]-pyridin-6-yl}urea] | 2.1 |
| CC1CC(Nc2n[nH]c3cc(NC(=O)N[C@H](C)c4ccccc4)ncc23)C(C)O1 (stereo partly drawn) [Example 78, 1-(3-((2,5-dimethyltetrahydro-furan-3-yl)amino)-1H-pyrazolo[4,3-c]-pyridin-6-yl)-3-((R)-1-phenylethyl)urea] | 7.4 |
| C[C@@H](NC(=O)Nc1cc2[nH]nc(N3CC(O)C3)c2cn1)c1ccccc1 [Example 79, 1-[3-(3-hydroxy-azetidin-1-yl)-1H-pyrazolo[4,3-c]-pyridin-6-yl]-3-[(1R)-1-phenylethyl]urea] | 9.7 |
| COC[C@@H](NC(=O)Nc1cc2[nH]nc(N3CC(O)C3)c2cn1)c1ccccc1 [Example 80, 1-[3-(3-hydroxy-azetidin-1-yl)-1H-pyrazolo[4,3-c]-pyridin-6-yl]-3-[(1S)-2-methoxy-1-phenylethyl]urea] | 5.5 |
